# Columns and labels:
# hESC-Ts = assay: Radiolabeled glucose flux (1-14C, 6-14C, 5-3H-glucose) in hESC-Ts; format: cell-based, human
# Method: For these experiments, hESCs immortalized via overexpression of telomerase (hESC-Ts) were used. […] The response of these cells to PPP inhibitors was also tested in order to confirm their similar dependence on the pathway for differentiation. In order to determine glucose flux through the various metabolic pathways in ESCs the metabolic fates of 1-^14C—, 6-^14C—, and 5-^3H-glucose was followed. hESC-Ts were incubated for 3 h with one of the radiolabled glucoses and production of ^14CO2 or ^3H2O was compared between the four treatment groups, control, decidualized, and decidualized with 2 μM or 5 μM 6-AN (FIG. 6). […] This was an indication that the flux through the TCA cycle or PPP was decreased in the inhibitor-treated ESCs. […] Therefore, inhibiting G6PD with 6-AN has no effect on TCA flux, but directly lowers the metabolism of glucose through PPP. The ratio of 1-C:6-C, which summarizes the relative preference of the PPP, can then be seen as decreasing in the presence of the inhibitor 6-AN.
# This indicates an increase in the amount of glucose entering glycolysis without continuing into the TCA cycle, possibly being converted into lactate.
# ESC-T cells [1] = assay: EdU incorporation proliferation assay; format: cell-based, human
# Source text: Other groups have shown that DHEA has anti-proliferative effects in a number of cell-lines and tissues. Thus, it was hypothesized that perhaps the PPP inhibitors prevent the proliferation of ESC-Ts and that this is an additional effect, independent of their role in decidualization inhibition. In a human uterus the stromal cells go through a cyclical oscillation between proliferation and differentiation, determined by the hormonal milieu. ESC-Ts in vitro remain in the proliferative state until they are exposed to differentiation media, which causes the cells to halt cell division and enter differentiation. Proliferation of ESC-T cells were monitored by EdU incorporation in vitro, which indicates entry into the S-phase of the cell cycle, in the absence of the differentiation hormones.
# Following 60 hr of the treatment indicated in the experiment, EdU was added to the culture medium at a concentration of […]. Cells were harvested and stained using the Click-iT EdU Flow Cytometry Kit (Invitrogen). Quantitative data were collected using a BD FACSCalibur flow cytometer (Becton Dickinson, San Jose, Calif.) and analyzed with FlowJo software (TreeSTar, Inc., Ashland, Oreg.). For confocal microscopy, the cells were stained on coverslips using the same protocol. Nuclei were counterstained with TOPRO-iodide (Molecular probes) at a 1:500 dilution. Cells were mounted on slides using Vectashield (Vector Labs) and visualized using a Nikon C1 microscope.
# ICR female mice [2] = assay: Intrauterine DHEA or 6-AN pellet and pregnancy outcome; format: in vivo, mouse
# Method: ICR female mice had either placebo (n=26), DHEA (1.5 mg/60 days)(n=20), or 6-AN pellets (150, 15, 1.5 mcg/60 days)(n=24) placed into the uterine horn after index delivery. Females were then mated and litter size was measured over the following 120 days post pellet. Mice were housed according to the Institutional Animal Care and use Committee and NIH guidelines. Day to first litter, number of litters, number of pups, average pups/litter were recorded. Serum DHEA levels were quantified (Alpco, Salem, N.H.). All pellets (placebo, DHEA, 6-AN) were custom-formulated (Innovative Research, Inc).
# ESC-T cells [3] = assay: In vitro decidualization of immortalized human ESC-T cells (decidualization marker mRNA, morphology); format: cell-based
# Source text: Decidualization in human cells was monitored by measuring the mRNA expression of two decidualization markers, PRL and IGFBP1.
# This NADP+ analog inhibits two enzymes in the PPP, G6PD and 6GPDH, which utilize NADP+ and convert it into NADPH.
# Two major results of the PPP are the production of ribose 5-phosphate and regeneration of NADPH. Production of ribose 5-phosphate is a central component in the de novo synthesis of ribonucleosides (RNs) and deoxyribonucleosides (DRNs). […] To address this question, ESC-T cultures were used and the differentiation media was supplemented with RNs and DRNs during treatment with PPP inhibitors.
# (§1) Endometrial tissue was obtained from human uteri after hysterectomy conducted for benign disease or from endometrial biopsies. Informed consent was obtained from each patient before surgery and protocols were approved by the Human Research Protection Office of Washington University (HRPO#07-0949). Tissues were placed in HBSS and transported to the laboratory. hESCs were isolated and cultured as previously described. In vitro decidualization was performed as previously described with several changes. Cells were seeded in 6-well plates at 2×10^5 cells/well in DMEM:F12 without phenol red, supplemented with 2% heat-inactivated charcoal dextran-stripped calf serum (HyClone) and 50 μg/ml penicillin/streptomycin (Cambrex Bio Science). Cells were treated with 1 μM medroxyprogesterone-17-acetate (MPA) (Sigma) and 0.5 mM N^6, 2′-O-Dibutyryladenosine 3′,5′-cyclic monophosphate sodium salt (db-cAMP) (Sigma). Control samples received 0.1% ethanol vehicle control.
# Human immortalized ESC (ESC telomerase immortalized, ESC-T), were decidualized in vitro in the presence of 0, 2.5 or 5 mM GlcN for 9 days.
# human primary ESCs = assay: In vitro decidualization of human primary ESCs (decidualization marker mRNA); format: cell-based
# Source text: (§2) In order to confirm that this is not a side effect of ESC immortalization with telomerase overexpression in this human cell line, the effect of DHEA on decidualization of primary ESC cultures from mouse and human uteri was also investigated. Murine ESCs were isolated from the gravid uterus at 4 days post coitus and cultured in vitro for 3 days to induce decidualization as described in the Methods. […] The human primary ESCs were isolated from uteri following hysterectomy for benign disease as outlined in the Methods and cultured in decidualization media for 9 days.
# Control samples received 0.1% ethanol vehicle control.
# murine ESCs = assay: In vitro decidualization of primary murine ESCs (Prp mRNA); format: cell-based, mouse; settings: 3 days in vitro culture
# Source text: as §2
# For in vitro decidualization of ESCs, female mice were sacrificed at 4dpc. Pregnancy was confirmed by flushing dissected uterine horns and ostia with HBSS and observing for presence of blastocysts. Uteri confirmed for pregnancy were cut into 1 mm^3 pieces and incubated in Dulbecco's modified Eagle's Medium:F12 medium (DMEM:F12) without phenol red supplemented with 2 g/liter Collagenase Type I (Gibco) for 60-90 min at 37° C. Tissues were vortexed every 15 min during incubation. Following incubation, the solution was passed through a 40 μm sieve (BD Falcon) and centrifuged at 1100 rpm for 5 min. […]
# ICR female mice [4] = assay: Intrauterine time-release GlcN pellet and pups per litter; format: in vivo, mouse; settings: time-release GlcN pellet (15-1500 μg) in one uterine horn; 60-day period
# Method: FIG. 25A-B graphically depicts decreased birth rate by glucosamine in ICR mice. 6 weeks old ICR female mice were implanted with a control or GlcN (15-1500 μg) pellet on one uterine horn and (A) with or (B) without the hysterectomy on the other uterine horn. Pups per litter in pellet implanted female mice crossed with males were recorded. **, P<0.01.
# (§3) Human immortalized ESC (ESC telomerase immortalized, ESC-T), were decidualized in vitro in the presence of 0, 2.5 or 5 mM GlcN for 9 days. […] Thus, it was concluded that perturbation of the PPP activity by GlcN might lead to the failure of ESC decidualization and thus possibly be one of the first non-hormonal inhibitors of decidualization. Finally, in vivo evidence is provided that female mice with a time-release GlcN pellet (15-1500 μg) implanted in one uterine horn, delivered fewer live pups per litter over a 60-day period than those with control pellet implantation (8.25 vs 4.23 pups/litter; FIG. 25).
# ESC-T = assay: Viability of ESC-T with GlcN (MTT assay and flow cytometry); format: cell-based, human; settings: 0, 2.5 or 5 mM GlcN for 9 days
# Method: as §3
# G6PDH = target: T1, G6PDH (Homo sapiens, UniProt P11413); assay: G6PDH activity in decidualized ESC-T cells exposed to GlcN; format: cell-based
# T1 construct: endogenous in cells; host or cells: human telomerase-immortalized endometrial stromal cells (ESC-T)
# Method: as §3
# human ESCs = tested on: human ESCs
# Method: as §1
# human immortalized ESCs = settings: 1 μM and 1.5 μM IA; 5-3H-glucose for four hours
# Method: In order to confirm inhibition of glycolysis, human immortalized ESCs were incubated in the presence of 5-^3H-glucose for four hours and the amount of ^3H2O production (H2O produced from the 5th hydrogen of glucose is a product of glycolysis) in ESCs exposed to different concentrations of IA was measured (FIG. 2b).
# [5] = decidualized cells with 2 μM or 5 μM 6-AN, 3 h
# T1 sequence (P11413 whole entry): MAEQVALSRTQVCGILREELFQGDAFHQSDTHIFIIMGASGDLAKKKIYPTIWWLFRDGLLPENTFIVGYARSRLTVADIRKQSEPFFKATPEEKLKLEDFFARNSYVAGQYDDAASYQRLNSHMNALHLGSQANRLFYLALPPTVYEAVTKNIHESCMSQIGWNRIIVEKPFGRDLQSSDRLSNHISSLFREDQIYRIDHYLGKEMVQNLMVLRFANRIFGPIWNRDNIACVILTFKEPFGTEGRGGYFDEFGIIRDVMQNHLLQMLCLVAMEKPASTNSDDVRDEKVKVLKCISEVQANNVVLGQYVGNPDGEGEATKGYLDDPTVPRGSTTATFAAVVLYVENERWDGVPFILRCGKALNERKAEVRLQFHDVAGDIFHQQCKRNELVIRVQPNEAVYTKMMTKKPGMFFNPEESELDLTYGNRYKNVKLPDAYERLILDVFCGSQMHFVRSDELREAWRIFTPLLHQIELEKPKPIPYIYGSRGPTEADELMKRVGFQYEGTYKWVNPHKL
structure (smiles),measurement,setting,value
"NC(=O)c1ccc(N)nc1 [6-AN, 6-aminonicotinamide]",Metabolism of glucose labeled at the C-1 position (14CO2),hESC-Ts; [5],lower in the decidualized cells exposed to 6-AN in a concentration dependent manner
same,Metabolism of the 6-C labeled glucose (14CO2),hESC-Ts; [5],not affected
same,Glycolytic flux of 5-3H labeled glucose,hESC-Ts; decidualized cells with 5 μM 6-AN,returned almost to the same levels as the control
same,Ratio of 1-C:6-C (relative preference of the PPP),hESC-Ts; presence of 6-AN,decreasing
same,EdU-positive nuclei vs DMSO control,"ESC-T cells [1]; 100 μM DHEA, 50 μM 6AN",drastic decrease
same,Proliferation by EdU geometric mean fluorescence intensity (flow cytometry),ESC-T cells [1]; 4 independent experiments,decreases proliferation of ESC-Ts in a concentration dependent manner
same,Reduction in average pup/litter size,"ICR female mice [2]; 6-AN pellet, not significant from control (p=0.4)",37.7%
same,Average time to first litter,"ICR female mice [2]; intrauterine pellet: DHEA 1.5 mg/60 days, 6-AN 150, 15, 1.5 mcg/60 days, controls 27 days",34 days
same,Expression of PRL and IGFBP,"ESC-T cells [3]; 10 μM 6AN, day 3 to day 9 in culture",inhibited
same,Expression of PRL and IGFBP1,human primary ESCs; 9 days in decidualization media,decreased
same,Prp mRNA expression,murine ESCs,decreased Prp expression
"N[C@H]1C(O)O[C@H](CO)[C@@H](O)[C@@H]1O (some centres unmarked) [GlcN, glucosamine]",Live pups per litter,ICR female mice [4],4.23 pups/litter
same,Viability / proliferation,ESC-T,viability similar to control cells
same,"mRNA expression of prolactin, somatostatin, interleukin-15, left-right determination factor 2, tissue inhibitor of metalloproteinase 3","ESC-T cells [3]; GlcN 2.5 or 5 mM, quantitative RT-PCR",significantly lower expression levels
same,Expression levels of PRL and SMST over time,"ESC-T cells [3]; GlcN, day 3 through day 9",decreased the expression levels
same,"mRNA expression of prolactin, somatostatin, interleukin-15, left-right determination factor 2, tissue inhibitor of metalloproteinase 3","human primary ESCs; GlcN, day 9 of culture",significantly lower expression levels
same,G6PDH activity vs control cells,G6PDH,significantly lower
"O=C(O)CI [IA, Iodoacetate]",Decidualization assessed by Prl marker expression,human ESCs; IA concentrations below the toxic threshold,not affected
same,Concentration inducing cell death,human ESCs; within 24 hr of administration,≥ 2000 nM
same,Reduction of flux of glucose through glycolysis,human immortalized ESCs,40%

# — patent publication US9381193B2, “Contraceptive methods and compositions” (WASHINGTON UNIVERSITY, priority 2011, dated 2016)
